Experimental data: patent publication US20100267561A1, “HERBICIDAL PYRIDAZINONE DERIVATIVES” (priority 2007, published 2010)

Assays:
Test in all cases: Test E pre-/postemergence plant response
Type in all cases: in vivo
[1] = test system: annual bluegrass (Poa annua); conditions: scale 0 to 100
Summary of the method: (§1)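 In this greenhouse assay, sown seeds received preemergence treatment and young plants of 2 to 18 cm (1- to 4-leaf stage) received postemergence treatment, both with compound in a non-phytotoxic solvent and surfactant vehicle. Effects were rated visually 14 to 21 days later on a 0–100 control scale.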

[2] = test system: barnyardgrass (Echinochloa crus-galli)
Summary of the method: as §1

[3] = test system: common groundsel (Senecio vulgaris); conditions: scale 0 to 100
Summary of the method: as §1

[4] = test system: common mallow (Malva sylvestris); conditions: scale 0 to 100
Summary of the method: as §1

[5] = test system: goosegrass (Eleusine indica); conditions: scale 0 to 100
Summary of the method: as §1

[6] = test system: green foxtail (Setaria viridis); conditions: scale 0 to 100
Summary of the method: as §1

[7] = test system: guineagrass (Panicum maximum); conditions: scale 0 to 100
Summary of the method: as §1

[8] = test system: large crabgrass (Digitaria sanguinalis); conditions: scale 0 to 100
Summary of the method: as §1

[9] = test system: pitted morningglory (Ipomoea lacunosa); conditions: scale 0 to 100
Summary of the method: as §1

[10] = test system: purple nutsedge (Cyperus rotundus); conditions: scale 0 to 100
Summary of the method: as §1

[11] = test system: southern (S.) sandbur (Cenchrus echinatus); conditions: scale 0 to 100
Summary of the method: as §1

[12] = Postemergence, 8 g ai/ha, scale 0 to 100
[13] = Postemergence, 31 g ai/ha, scale 0 to 100

## CCc1cc(-c2ccc(C(F)(F)F)cc2)nn1-c1c(OC(=O)OC(C)C)cnn(C)c1=O [Compound 12]
[1]; 4 g ai/ha, Postemergence
  Plant response rating, Bluegrass: 0
[1]; 8 g ai/ha, Preemergence
  Plant response rating, Bluegrass: 0
[1]; 31 g ai/ha, Preemergence
  Plant response rating, Bluegrass: 0
[1]; Postemergence, 8 g ai/ha
  Plant response rating, Bluegrass: 0
[1]; Postemergence, 31 g ai/ha
  Plant response rating, Bluegrass: 0
[1]; Preemergence, 4 g ai/ha
  Plant response rating, Bluegrass: 0
[2]; 4 g ai/ha, Postemergence, scale 0 to 100
  Plant response rating, Barnyardgrass: 90
[2]; 8 g ai/ha, Preemergence, scale 0 to 100
  Plant response rating, Barnyardgrass: 70
[2]; 31 g ai/ha, Preemergence, scale 0 to 100
  Plant response rating, Barnyardgrass: 95
[2]; [12]
  Plant response rating, Barnyardgrass: 100
[2]; [13]
  Plant response rating, Barnyardgrass: 100
[2]; Preemergence, 4 g ai/ha, scale 0 to 100, 0 no effect, 100 complete control
  Plant response rating, Barnyardgrass: 20
[3]; 4 g ai/ha, Postemergence
  Plant response rating, Groundsel: 0
[3]; 31 g ai/ha, Preemergence
  Plant response rating, Groundsel: 0
[3]; Postemergence, 8 g ai/ha
  Plant response rating, Groundsel: 0
[3]; Postemergence, 31 g ai/ha
  Plant response rating, Groundsel: 0
[3]; Preemergence, 4 g ai/ha
  Plant response rating, Groundsel: 0
[4]; 4 g ai/ha, Postemergence
  Plant response rating, Mallow: 0
[4]; 31 g ai/ha, Preemergence
  Plant response rating, Mallow: 0
[4]; Postemergence, 8 g ai/ha
  Plant response rating, Mallow: 0
[4]; Postemergence, 31 g ai/ha
  Plant response rating, Mallow: 0
[4]; Preemergence, 4 g ai/ha
  Plant response rating, Mallow: 0
[5]; 4 g ai/ha, Postemergence
  Plant response rating, Goosegrass: 10
[5]; 8 g ai/ha, Preemergence
  Plant response rating, Goosegrass: 65
[5]; 31 g ai/ha, Preemergence
  Plant response rating, Goosegrass: 75
[5]; Postemergence, 8 g ai/ha
  Plant response rating, Goosegrass: 30
[5]; Postemergence, 31 g ai/ha
  Plant response rating, Goosegrass: 90
[5]; Preemergence, 4 g ai/ha
  Plant response rating, Goosegrass: 25
[6]; 4 g ai/ha, Postemergence
  Plant response rating, Foxtail, Green: 30
[6]; 8 g ai/ha, Preemergence
  Plant response rating, Foxtail, Green: 60
[6]; 31 g ai/ha, Preemergence
  Plant response rating, Foxtail, Green: 100
[6]; Postemergence, 8 g ai/ha
  Plant response rating, Foxtail, Green: 90
[6]; Postemergence, 31 g ai/ha
  Plant response rating, Foxtail, Green: 100
[6]; Preemergence, 4 g ai/ha
  Plant response rating, Foxtail, Green: 0
[7]; 4 g ai/ha, Postemergence
  Plant response rating, Guineagrass: 95
[7]; 31 g ai/ha, Preemergence
  Plant response rating, Guineagrass: 100
[7]; Postemergence, 8 g ai/ha
  Plant response rating, Guineagrass: 95
[7]; Postemergence, 31 g ai/ha
  Plant response rating, Guineagrass: 95
[7]; Preemergence, 4 g ai/ha
  Plant response rating, Guineagrass: 0
[8]; 4 g ai/ha, Postemergence
  Plant response rating, Crabgrass, Large: 0
[8]; 8 g ai/ha, Preemergence
  Plant response rating, Crabgrass, Large: 35
[8]; 31 g ai/ha, Preemergence
  Plant response rating, Crabgrass, Large: 98
[8]; Postemergence, 8 g ai/ha
  Plant response rating, Crabgrass, Large: 65
[8]; Postemergence, 31 g ai/ha
  Plant response rating, Crabgrass, Large: 95
[8]; Preemergence, 4 g ai/ha
  Plant response rating, Crabgrass, Large: 0
[9]; 4 g ai/ha, Postemergence
  Plant response rating, Morningglory: 0
[9]; 31 g ai/ha, Preemergence
  Plant response rating, Morningglory: 0
[9]; Postemergence, 8 g ai/ha
  Plant response rating, Morningglory: 0
[9]; Postemergence, 31 g ai/ha
  Plant response rating, Morningglory: 0
[9]; Preemergence, 4 g ai/ha
  Plant response rating, Morningglory: 0
[10]; 4 g ai/ha, Postemergence
  Plant response rating, Nutsedge, Purple: 0
[10]; 31 g ai/ha, Preemergence
  Plant response rating, Nutsedge, Purple: 0
[10]; Postemergence, 8 g ai/ha
  Plant response rating, Nutsedge, Purple: 0
[10]; Postemergence, 31 g ai/ha
  Plant response rating, Nutsedge, Purple: 0
[11]; 4 g ai/ha, Postemergence
  Plant response rating, Sandbur, S.: 90
[11]; 31 g ai/ha, Preemergence
  Plant response rating, Sandbur, S.: 95
[11]; Postemergence, 8 g ai/ha
  Plant response rating, Sandbur, S.: 98
[11]; Postemergence, 31 g ai/ha
  Plant response rating, Sandbur, S.: 100
[11]; Preemergence, 4 g ai/ha
  Plant response rating, Sandbur, S.: 0

## Cc1cc(-c2ccc(Cl)cc2)nn1-c1c(OC(=O)Oc2ccccc2)cnn(C)c1=O [Compound 54]
[1]; 8 g ai/ha, Postemergence
  Plant response rating, Bluegrass: 0
[1]; Postemergence, 16 g ai/ha
  Plant response rating, Bluegrass: 0
[1]; Postemergence, 31 g ai/ha
  Plant response rating, Bluegrass: 0
[1]; Postemergence, 62 g ai/ha
  Plant response rating, Bluegrass: 0
[2]; [12]
  Plant response rating, Barnyardgrass: 95
[2]; Postemergence, 16 g ai/ha, scale 0 to 100
  Plant response rating, Barnyardgrass: 98
[2]; [13]
  Plant response rating, Barnyardgrass: 100
[2]; Postemergence, 62 g ai/ha, scale 0 to 100
  Plant response rating, Barnyardgrass: 100
[3]; 8 g ai/ha, Postemergence
  Plant response rating, Groundsel: 0
[3]; Postemergence, 16 g ai/ha
  Plant response rating, Groundsel: 0
[3]; Postemergence, 31 g ai/ha
  Plant response rating, Groundsel: 0
[4]; 8 g ai/ha, Postemergence
  Plant response rating, Mallow: 0
[4]; Postemergence, 16 g ai/ha
  Plant response rating, Mallow: 0
[4]; Postemergence, 31 g ai/ha
  Plant response rating, Mallow: 0
[4]; Postemergence, 62 g ai/ha
  Plant response rating, Mallow: 0
[5]; 8 g ai/ha, Postemergence
  Plant response rating, Goosegrass: 0
[5]; Postemergence, 16 g ai/ha
  Plant response rating, Goosegrass: 0
[5]; Postemergence, 31 g ai/ha
  Plant response rating, Goosegrass: 50
[5]; Postemergence, 62 g ai/ha
  Plant response rating, Goosegrass: 95
[6]; 8 g ai/ha, Postemergence
  Plant response rating, Foxtail, Green: 40
[6]; Postemergence, 16 g ai/ha
  Plant response rating, Foxtail, Green: 70
[6]; Postemergence, 31 g ai/ha
  Plant response rating, Foxtail, Green: 80
[6]; Postemergence, 62 g ai/ha
  Plant response rating, Foxtail, Green: 98
[7]; 8 g ai/ha, Postemergence
  Plant response rating, Guineagrass: 95
[7]; Postemergence, 16 g ai/ha
  Plant response rating, Guineagrass: 95
[7]; Postemergence, 31 g ai/ha
  Plant response rating, Guineagrass: 95
[7]; Postemergence, 62 g ai/ha
  Plant response rating, Guineagrass: 100
[8]; 8 g ai/ha, Postemergence
  Plant response rating, Crabgrass, Large: 25
[8]; Postemergence, 16 g ai/ha
  Plant response rating, Crabgrass, Large: 80
[8]; Postemergence, 31 g ai/ha
  Plant response rating, Crabgrass, Large: 95
[8]; Postemergence, 62 g ai/ha
  Plant response rating, Crabgrass, Large: 100
[9]; 8 g ai/ha, Postemergence
  Plant response rating, Morningglory: 0
[9]; Postemergence, 16 g ai/ha
  Plant response rating, Morningglory: 0
[9]; Postemergence, 31 g ai/ha
  Plant response rating, Morningglory: 0
[9]; Postemergence, 62 g ai/ha
  Plant response rating, Morningglory: 0
[10]; 8 g ai/ha, Postemergence
  Plant response rating, Nutsedge, Purple: 0
[10]; Postemergence, 16 g ai/ha
  Plant response rating, Nutsedge, Purple: 0
[10]; Postemergence, 31 g ai/ha
  Plant response rating, Nutsedge, Purple: 0
[10]; Postemergence, 62 g ai/ha
  Plant response rating, Nutsedge, Purple: 0
[11]; 8 g ai/ha, Postemergence
  Plant response rating, Sandbur, S.: 60
[11]; Postemergence, 16 g ai/ha
  Plant response rating, Sandbur, S.: 80
[11]; Postemergence, 31 g ai/ha
  Plant response rating, Sandbur, S.: 90
[11]; Postemergence, 62 g ai/ha
  Plant response rating, Sandbur, S.: 95
